Test results as given in patent publication US9650399B2, “Salicylic acid derivatives, pharmaceutically acceptable salt thereof, composition thereof and method of use thereof” (The Governing Council of the University of Toronto, priority 2012, dated 2017).
Read-outs that look alike come from different tables or passages of the source.

What was measured:
BTSCs = experiment: alamarBlue cytotoxicity across BTSC lines; type: cell-based, human; details: Homo sapiens
Method: (§1) First, the library was screened for biological activity against a set of three representative GBM BTSCs derived from GBM patients, including the very aggressive GBM BTSC lines, BTSC73M, BTSC30M, BTSC68EF. Dissociated BTSC spheres were seeded at 1500 cells/96-well and treated with drug compound or vehicle (DMSO) one day after plating. Cell viability following drug treatment was assessed after 72 hrs using the ALAMARBLUE™ assay (Invitrogen) according to the manufacturer's instructions. All culture experiments were performed in triplicate with a minimum of three wells per condition.
(§2) BTSC spheres were dissociated to single cells with the enzyme Accumax (Innovative Technologies), seeded at 1500 cells/96-well and treated with drug or vehicle (DMSO) one day after plating. […] BTSC spheres were dissociated to single cells as above and plated in 96 well plates in triplicate at 3000 cells/96-well. […] Cell viability following drug treatment was assessed three days later using the ALAMARBLUE™ assay (Invitrogen) according to the manufacturer's instructions. All culture experiments were performed in triplicate with a minimum of three wells per condition.

[1] = system: normal human fetal astrocytes (HF 2003, HF 2006, HF 2009, HF 2013); experiment: toxicity in normal human fetal astrocytes; type: cell-based; details: concentrations of up to 5 μM
Method: Given the nM cytoxicity, these compounds were assayed for biological effects in healthy cells.
GBM BTSCs were cultured from a series of tumor specimens obtained following informed consent from adult GBM patients during their operative procedure as previously described (Kelly et al, Stem Cells 2009) and approved by the University of Calgary Ethics Review Board. Briefly, BTSC cultures were initiated in serum-free defined culture medium (SFM) and gave rise to nonadherent spheres after 7 to 21 days in culture. Primary tumor spheres were expanded for several passages and then cryopreserved in 10% DMSO (Sigma Aldrich) in serum-free defined medium until use in experiments. Human fetal neural stem cells were also cultured as previously described and induced to differentiate into astrocytes by addition of 10% fetal bovine serum and removal of EGF, FGF-2 and heparan sulfate.

147EF = experiment: alamarBlue cell viability, BTSC 147EF; type: cell-based, human; details: Homo sapiens, Table 4 library screen
Description: BTSC spheres were dissociated to single cells with the enzyme Accumax (Innovative Technologies), seeded at 1500 cells/96-well and treated with drug or vehicle (DMSO) one day after plating. Cytotoxicity studies were repeated independently at Sickkids Hospital using BTSC lines 25M, 67EF, 73EF, 84EF and 127EF. BTSC spheres were dissociated to single cells as above and plated in 96 well plates in triplicate at 3000 cells/96-well. In both sets of experiments drugs were used as serial dilutions within the range of 5 μM to 100 nM in the first set and 25 μM to 10 nM. Cell viability following drug treatment was assessed three days later using the ALAMARBLUE™ assay (Invitrogen) according to the manufacturer's instructions. All culture experiments were performed in triplicate with a minimum of three wells per condition. Table 4 below illustrates a screen of the library against a number of BTSCs using ALAMARBLUE™ assay.

BTSC30M = experiment: alamarBlue cell viability, BTSC 30M; type: cell-based, human; details: for IC50: Homo sapiens
Method: as §1, §2

pSTAT3 (Y705) = experiment: Western blot of phosphorylated STAT3 in BTSCs; type: cell-based, human; details: Western blot
Description: Blots were stained with antibodies: phospho-Y705, phospho-S727, Bcl-xL, cyclin D1, PARP and Actin. Bands were visualized with the ECL PLUS™ Western Blotting Detection System and […]™ (Amersham). […] BTSC spheres were lysed in modified RIPA buffer supplemented with Complete Mini protease (Roche) and Halt phosphatase (Thermo Scientific) inhibitor cocktails. […] Blots were stained with the following antibodies: phospho-STAT3 Y705 (1:1000, Cell Signalling Technology), phospho-STAT3 S727 (1:1000, Cell Signalling Technology), STAT3 (1:1000, Santa Cruz Biotechnology), Bcl-xL (1:1000, Cell Signalling Technology), cyclin D1 (1:1000, Cell Signalling Technology) PARP (1:1000, Cell Signalling Technology) and Actin (1:2500, Santa Cruz Biotechnology). HRP conjugated secondary antibodies, goat anti-rabbit (Cell Signalling Technology) were used at 1:2000 and donkey anti-mouse, donkey anti-goat, and goat anti-rabbit, (Calbiochem) were used at 1:6000. Bands were visualized with the ECL Plus Western Blotting Detection System and Hyperfilm (Amersham).

BTSC68EF = experiment: alamarBlue cell viability, BTSC 68EF; type: cell-based, human; details: Table 4 library screen, alamarBlue; for IC50: Homo sapiens, read-out: 68EF IC50
Method: as §1, §2

BTSC73M = experiment: alamarBlue cell viability, BTSC 73M; type: cell-based, human; details: Table 4 library screen, alamarBlue; for IC50: Homo sapiens, read-out: 73M IC50
Method: as §1, §2

STAT3 SH2 domain = STAT3 SH2 domain (Homo sapiens, UniProt P40763); experiment: fluorescence polarization (FP) assay, STAT3; details: 5-FAM-GpYLPQTV-NH2 probe
STAT3 SH2 domain, sequence (P40763 whole entry, the tested form may be a part): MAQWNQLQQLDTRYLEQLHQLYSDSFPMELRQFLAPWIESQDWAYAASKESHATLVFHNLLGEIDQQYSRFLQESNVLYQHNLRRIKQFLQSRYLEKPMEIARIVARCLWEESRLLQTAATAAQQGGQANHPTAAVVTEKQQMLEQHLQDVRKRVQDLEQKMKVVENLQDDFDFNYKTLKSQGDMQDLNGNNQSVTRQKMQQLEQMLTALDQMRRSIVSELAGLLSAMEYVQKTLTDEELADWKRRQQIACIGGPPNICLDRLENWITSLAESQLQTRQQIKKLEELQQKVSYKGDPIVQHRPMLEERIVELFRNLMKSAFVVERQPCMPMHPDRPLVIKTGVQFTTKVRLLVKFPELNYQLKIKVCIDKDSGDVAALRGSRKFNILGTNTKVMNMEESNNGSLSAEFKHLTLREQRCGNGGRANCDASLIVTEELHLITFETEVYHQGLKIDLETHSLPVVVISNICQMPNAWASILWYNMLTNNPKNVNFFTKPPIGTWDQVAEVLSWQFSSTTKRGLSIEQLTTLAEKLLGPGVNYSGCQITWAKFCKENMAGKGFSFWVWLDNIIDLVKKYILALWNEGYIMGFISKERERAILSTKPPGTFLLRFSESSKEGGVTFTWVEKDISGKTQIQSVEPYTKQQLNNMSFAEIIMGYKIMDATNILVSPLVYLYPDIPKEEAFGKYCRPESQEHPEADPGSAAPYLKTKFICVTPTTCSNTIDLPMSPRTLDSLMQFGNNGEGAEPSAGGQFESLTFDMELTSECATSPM
Method: The buffer used contained 50 mM NaCl, 10 mM Hepes, pH 7.5, 1 mM EDTA and 2 mM dithiothreitol and a final concentration of 5% DMSO.
Test compounds were dissolved in DMSO and diluted using a dilution medium consisting of 50 mM NaCl, 10 mM Hepes, pH 7.5, 1 mM EDTA, and 2 mM dithiothreitol. Fluorescently-labelled pYLPQTV peptide (FAM-pYLPQTV) was kept at a final concentration of 10 nM in the buffered solution.
The midpoint of the saturation curve was used to determine the STAT3 concentration required for the competitive fluorescent polarization assay. […] 7.5 μL of inhibitory molecules (and positive control) solution were individually added to the plate. The final inhibitory concentrations were 100 μL, 50 μL, 25A, 12.5 μL, 6.3 μL, or 3.1 μL. The 10% DMSO buffer solution was incubated for 15-30 minutes before signal measurements by the Infinite M1000.

[2] = system: patient-derived pancreatic cancer line (Panc10.05); experiment: MTS cell survival, pancreatic cancer line; type: cell-based; details: Homo sapiens, Panc1005, Panc10.05, 72 h, read-out: ED50 (IC50)
Method: Low passage patient-derived pancreatic cancer line (Panc10.05) was plated in 96-well plates (3×10^3 per well) and allowed to attach overnight. STAT3 inhibitors 31, 41, 42 and 38 were added at indicated concentrations. Cell survival was measured 72 h after drug addition with the MTS assay.

c-Src = target: T1, c-Src (Homo sapiens, UniProt P12931); experiment: HotSpot radiometric kinase assay, c-Src; type: biochemical; details: 5 uM compound, 10 μM ATP, duplicate (Data 1, Data 2)
T1 construct: purchased Reaction Biology Corporation
T1 sequence (P12931 whole entry): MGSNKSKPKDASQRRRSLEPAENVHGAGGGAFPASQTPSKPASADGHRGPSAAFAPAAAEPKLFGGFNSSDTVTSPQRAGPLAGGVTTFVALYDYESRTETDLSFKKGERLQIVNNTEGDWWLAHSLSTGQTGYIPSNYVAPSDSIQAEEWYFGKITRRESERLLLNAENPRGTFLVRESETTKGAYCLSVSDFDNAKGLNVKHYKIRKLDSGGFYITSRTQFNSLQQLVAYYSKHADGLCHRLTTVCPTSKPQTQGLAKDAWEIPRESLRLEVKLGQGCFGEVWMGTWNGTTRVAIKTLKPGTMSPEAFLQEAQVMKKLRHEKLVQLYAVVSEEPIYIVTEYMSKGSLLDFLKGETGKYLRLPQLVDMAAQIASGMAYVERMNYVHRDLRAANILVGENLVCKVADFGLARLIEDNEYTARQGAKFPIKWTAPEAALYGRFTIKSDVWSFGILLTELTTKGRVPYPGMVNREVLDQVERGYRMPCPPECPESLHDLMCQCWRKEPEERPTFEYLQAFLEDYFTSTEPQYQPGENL
Method: (§3) Briefly, this assay employs a radiometric detection system to measure kinase phosphoryl transfer activity.
(§4) Test compound was evaluated at a single dose of 5 μM in duplicate mode. […] Reactions were carried out at 10 μM ATP.
(§5) Preliminary screen against AKT, c-Src, ERK1, JaK1 and JaK2 was performed at Reaction Biology Corporation (www.reactionbiology.com, Malvern, Pa.) using the “HotSpot” assay platform. Specific kinase/substrate pairs along with their required cofactors were prepared in reaction buffer; 20 mM Hepes pH 7.5, 10 mM MgCl2, 1 mM EGTA, 0.02% Brij35, 0.02 mg/ml BSA, 0.1 mM Na3VO4, 2 mM DTT, 1% DMSO. The screen was completed in duplicate at a single concentration of 5 μM. The reaction well with the subject compound was treated with a mixture of ATP (Sigma, St. Louis Mo.) and ^33P ATP (Perkin Elmer, Waltham Mass.) to a final concentration of 10 μM. […] Reaction wells were kept at room temperature for 120 minutes, followed by spotting each of the reactions onto P81 ion exchange filter paper (Whatman Inc., Piscataway, N.J.). […] Background was subtracted using control reactions and the kinase activity data was expressed as the percent remaining kinase activity in test samples compared to vehicle (dimethyl sulfoxide) reactions. All IC50 values (table 3) and curve fitting were produced using Prism (GraphPad Software) (FIG. 5).

AKT1 = target: T2, AKT1 (Homo sapiens, UniProt P31749); experiment: HotSpot radiometric kinase assay, AKT1; type: biochemical; details: 5 uM compound, 10 μM ATP, duplicate (Data 1, Data 2)
T2 construct: purchased Reaction Biology Corporation
T2 sequence (P31749 whole entry): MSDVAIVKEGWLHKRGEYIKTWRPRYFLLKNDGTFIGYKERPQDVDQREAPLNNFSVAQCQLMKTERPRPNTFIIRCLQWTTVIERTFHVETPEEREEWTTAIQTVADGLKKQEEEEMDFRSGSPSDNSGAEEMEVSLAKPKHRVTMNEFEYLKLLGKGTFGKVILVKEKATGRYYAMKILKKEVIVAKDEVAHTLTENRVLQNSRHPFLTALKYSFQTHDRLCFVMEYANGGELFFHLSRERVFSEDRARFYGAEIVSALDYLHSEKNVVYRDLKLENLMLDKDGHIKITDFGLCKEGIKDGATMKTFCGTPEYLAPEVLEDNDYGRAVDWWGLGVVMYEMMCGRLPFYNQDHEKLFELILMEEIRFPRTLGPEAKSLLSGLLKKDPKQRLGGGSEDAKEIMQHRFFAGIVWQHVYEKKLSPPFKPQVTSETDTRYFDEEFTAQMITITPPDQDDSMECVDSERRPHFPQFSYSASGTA

[3] = system: Breast cancer cells (MDA-MB-468); experiment: IC50 in breast cancer cells; type: cell-based; details: Homo sapiens, Table 6
ERK1 = target: T3, ERK1 (Homo sapiens, UniProt P27361); experiment: HotSpot radiometric kinase assay, ERK1; type: biochemical; details: 5 uM compound, 10 μM ATP, duplicate (Data 1, Data 2)
T3 construct: purchased Reaction Biology Corporation
T3 sequence (P27361 whole entry): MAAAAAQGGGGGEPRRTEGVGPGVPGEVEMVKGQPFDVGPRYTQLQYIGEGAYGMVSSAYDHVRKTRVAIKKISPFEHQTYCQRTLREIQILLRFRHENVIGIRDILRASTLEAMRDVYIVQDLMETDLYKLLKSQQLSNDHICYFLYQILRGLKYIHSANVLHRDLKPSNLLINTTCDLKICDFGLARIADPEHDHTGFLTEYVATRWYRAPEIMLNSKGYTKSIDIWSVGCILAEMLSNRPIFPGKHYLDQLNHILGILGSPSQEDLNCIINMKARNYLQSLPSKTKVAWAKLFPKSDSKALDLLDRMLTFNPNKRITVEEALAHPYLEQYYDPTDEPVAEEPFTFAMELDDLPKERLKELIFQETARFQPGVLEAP

[4] = system: leukemia cancer cells (AML-2); experiment: IC50 in leukemia cancer cells; type: cell-based; details: Table 6
JAK2 = target: T4, JAK2 (Homo sapiens, UniProt O60674); experiment: HotSpot radiometric kinase assay, JAK2; type: biochemical; details: 5 uM compound, 10 μM ATP, duplicate (Data 1, Data 2)
T4 construct: purchased Reaction Biology Corporation
T4 sequence (O60674 whole entry): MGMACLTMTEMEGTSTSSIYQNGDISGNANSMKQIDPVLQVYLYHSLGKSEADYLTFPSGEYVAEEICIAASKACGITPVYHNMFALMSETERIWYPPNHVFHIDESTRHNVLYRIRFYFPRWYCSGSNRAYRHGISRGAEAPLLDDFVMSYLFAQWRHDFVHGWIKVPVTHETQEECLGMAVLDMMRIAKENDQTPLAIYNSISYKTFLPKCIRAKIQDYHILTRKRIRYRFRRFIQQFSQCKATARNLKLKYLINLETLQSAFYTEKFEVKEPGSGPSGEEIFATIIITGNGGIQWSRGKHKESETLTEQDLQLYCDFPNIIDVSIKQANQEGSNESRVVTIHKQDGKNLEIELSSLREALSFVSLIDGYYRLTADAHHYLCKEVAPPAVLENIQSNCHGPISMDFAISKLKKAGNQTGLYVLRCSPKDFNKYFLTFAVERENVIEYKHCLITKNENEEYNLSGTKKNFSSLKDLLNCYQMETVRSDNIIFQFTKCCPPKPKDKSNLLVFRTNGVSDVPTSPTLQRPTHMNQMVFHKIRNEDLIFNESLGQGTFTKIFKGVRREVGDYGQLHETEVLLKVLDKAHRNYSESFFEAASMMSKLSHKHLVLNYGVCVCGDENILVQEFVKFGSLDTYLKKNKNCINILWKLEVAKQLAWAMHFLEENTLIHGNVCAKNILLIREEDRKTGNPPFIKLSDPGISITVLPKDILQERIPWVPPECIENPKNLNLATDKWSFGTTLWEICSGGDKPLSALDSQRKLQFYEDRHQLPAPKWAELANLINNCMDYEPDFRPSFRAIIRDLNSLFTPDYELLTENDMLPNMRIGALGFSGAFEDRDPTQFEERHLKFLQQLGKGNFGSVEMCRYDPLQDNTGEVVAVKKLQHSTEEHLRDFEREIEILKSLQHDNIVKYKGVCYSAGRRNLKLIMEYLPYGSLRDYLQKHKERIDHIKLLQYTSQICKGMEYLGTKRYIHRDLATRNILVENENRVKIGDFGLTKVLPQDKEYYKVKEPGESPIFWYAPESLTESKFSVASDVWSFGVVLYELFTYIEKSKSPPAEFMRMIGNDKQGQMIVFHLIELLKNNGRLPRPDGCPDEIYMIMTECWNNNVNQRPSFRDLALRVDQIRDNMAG
Method: as §3, §4, §5

Prostate (DU145) = experiment: IC50 in prostate cancer cells; type: cell-based; details: Homo sapiens, DU-145; Table 6
JAK1 = target: T5, JAK1 (Homo sapiens, UniProt P23458); experiment: HotSpot radiometric kinase assay, JAK1; type: biochemical; details: 5 uM compound, 10 μM ATP, duplicate (Data 1, Data 2)
T5 construct: purchased Reaction Biology Corporation
T5 sequence (P23458 whole entry): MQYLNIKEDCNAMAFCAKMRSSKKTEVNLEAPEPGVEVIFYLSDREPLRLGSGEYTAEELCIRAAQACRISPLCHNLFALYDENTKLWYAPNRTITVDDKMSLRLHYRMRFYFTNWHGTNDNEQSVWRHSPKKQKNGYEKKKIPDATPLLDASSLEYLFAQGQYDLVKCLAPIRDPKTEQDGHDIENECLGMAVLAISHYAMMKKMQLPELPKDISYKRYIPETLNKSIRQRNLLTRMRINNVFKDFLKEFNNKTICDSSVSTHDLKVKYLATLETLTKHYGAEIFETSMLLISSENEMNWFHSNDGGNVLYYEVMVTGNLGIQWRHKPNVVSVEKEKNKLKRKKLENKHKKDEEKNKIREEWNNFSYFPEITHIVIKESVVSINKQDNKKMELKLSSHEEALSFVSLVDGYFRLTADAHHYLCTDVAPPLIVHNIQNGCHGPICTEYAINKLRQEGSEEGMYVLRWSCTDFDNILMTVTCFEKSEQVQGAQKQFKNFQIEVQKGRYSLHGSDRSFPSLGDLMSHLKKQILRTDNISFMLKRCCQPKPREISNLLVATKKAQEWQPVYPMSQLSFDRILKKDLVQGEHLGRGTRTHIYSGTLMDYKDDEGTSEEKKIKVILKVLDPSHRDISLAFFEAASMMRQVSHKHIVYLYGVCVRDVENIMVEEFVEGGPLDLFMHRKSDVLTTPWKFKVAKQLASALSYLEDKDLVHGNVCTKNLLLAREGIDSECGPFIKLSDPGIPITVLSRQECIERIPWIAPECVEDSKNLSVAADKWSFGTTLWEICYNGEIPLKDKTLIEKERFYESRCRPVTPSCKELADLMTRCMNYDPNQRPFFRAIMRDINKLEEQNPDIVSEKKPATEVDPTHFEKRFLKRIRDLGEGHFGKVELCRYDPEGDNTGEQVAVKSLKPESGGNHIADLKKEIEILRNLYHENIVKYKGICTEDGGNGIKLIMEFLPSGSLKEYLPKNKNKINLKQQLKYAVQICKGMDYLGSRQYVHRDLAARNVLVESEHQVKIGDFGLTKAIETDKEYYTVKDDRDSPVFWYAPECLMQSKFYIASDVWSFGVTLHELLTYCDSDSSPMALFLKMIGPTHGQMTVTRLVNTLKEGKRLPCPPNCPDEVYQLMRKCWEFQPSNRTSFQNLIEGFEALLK
Method: as §3, §4, §5

[5] = read-out: 30M IC50 (μM), Table 4 library screen, alamarBlue
[6] = Table 4 library screen, alamarBlue

Compound: CC(=O)Oc1cc(N(Cc2ccc(C3CCCCC3)cc2)C(=O)CN(C)S(=O)(=O)c2c(F)c(F)c(F)c(F)c2F)ccc1C(=O)O [Compound 22, 2-acetoxy-4-(N-(4-cyclohexylbenzyl)-2-(2,3,4,5,6-pentafluoro-N-methylphenylsulfonamido)acetamido)benzoic acid]
- EC50 (BTSCs; collective range over 8 BTSC lines, read-out: EC50s across all 8 BTSCs evaluated): 66 to 1140 nM
- IC50 (BTSCs; collective range, units given in the value, read-out: IC50 values of the top four ranked compounds against BTSCs): 100 to 3800 nM
- toxicity in normal human cells [1]: minimal toxicity
- IC50 (147EF): 776 nM
- IC50 (BTSC30M; [5]): 0.526 µM
- IC50 (BTSC30M; read-out: IC50 (nM) in BTSC 30M): 0.526 ± 0.013 µM
- pSTAT3 inhibition potency (pSTAT3 (Y705); 0, 0.1, 0.5, 1.0 and 5.0 μM): nM inhibition of pSTAT3
- suppression of pSTAT3 (Y705) (pSTAT3 (Y705); 1 μM, BTSCs): most suppression of pSTAT3 (Y705)
- IC50 (BTSC68EF): 891 nM
- IC50 (BTSC73M): 1450 nM

Compound: CN(CC(=O)N(Cc1ccc(C2CCCCC2)cc1)c1ccc(C(=O)OCOC(=O)C(C)(C)C)cc1)S(=O)(=O)c1c(F)c(F)c(F)c(F)c1F [Compound 27, (pivaloyloxy)methyl 4-(N-(4-cyclohexylbenzyl)-2-(2,3,4,5,6-pentafluoro-N-methylphenylsulfonamido)acetamido)benzoate]
- 30M IC50 (μM) (BTSC30M; [6]): no effect
- disruption of STAT3:phosphopeptide interaction / binding activity (in words) (STAT3 SH2 domain): most potent inhibitor of STAT3
- 68EF IC50 (μM) (BTSC68EF): no effect

Compound: CN(CC(=O)N(Cc1ccc(C2CCCCC2)cc1)c1ccccc1)S(=O)(=O)c1c(F)c(F)c(F)c(F)c1F [Compound 36, N-(4-cyclohexylbenzyl)-2-(2,3,4,5,6-pentafluoro-N-methylphenylsulfonamido)-N-phenylacetamide]
- disruption of STAT3:phosphopeptide interaction / binding activity (in words) (STAT3 SH2 domain): no disruption of the STAT3:phosphopeptide interaction
- 73M IC50 (μM) (BTSC73M): no effect

Compound: CN(CC(=O)N(Cc1ccc(C2CCCCC2)cc1)c1ccc(O)c(C(=O)O)c1)S(=O)(=O)c1c(F)c(F)c(F)c(F)c1F [Compound 38, 5-(N-(4-cyclohexylbenzyl)-2-(2,3,4,5,6-pentafluoro-N-methylphenylsulfonamido)acetamido)-2-hydroxybenzoic acid]
- IC50 [2]: 4800 nM
- IC50 (BTSC30M; [5]): 2.07 µM
- IC50 (BTSC68EF): 3050 nM
- IC50 (BTSC73M): 2550 nM

Compound: CN(CC(=O)N(Cc1ccc(C2CCCCC2)cc1)c1ccc(NC(=O)Cc2nnn[nH]2)cc1)S(=O)(=O)c1c(F)c(F)c(F)c(F)c1F [Compound 41, N-(4-(2-(1H-tetrazol-5-yl)acetamido)phenyl)-N-(4-cyclohexylbenzyl)-2-(2,3,4,5,6-pentafluoro-N-methylphenylsulfonamido)acetamide]
- IC50 [2]: 16400 nM
- IC50 (BTSC73M): 3500 nM

Compound: Cc1ccc(S(=O)(=O)N(C)CC(=O)N(Cc2ccc(C3CCCCC3)cc2)c2ccc(C(=O)O)cc2)cc1 [Compound 42, 4-(N-(4-cyclohexylbenzyl)-2-(N,4-dimethylphenylsulfonamido)acetamido)benzoic acid]
- IC50 [2]: 16700 nM
- 30M IC50 (μM) (BTSC30M; [6]): no effect
- 73M IC50 (μM) (BTSC73M): no effect

Compound: CC(=O)Oc1cc(N(Cc2ccc(C3CCCCC3)cc2)C(=O)CN(C)S(=O)(=O)c2ccc(C)cc2)ccc1C(=O)O [SH-05-19, 2-acetoxy-4-(N-(4-cyclohexylbenzyl)-2-(N,4-dimethylphenylsulfonamido)acetamido)benzoic acid]
- remaining activity at 5 µM (c-Src; read-out: % Enzyme activity relative to DMSO (control), c-Src): 41.6%
- % Enzyme activity relative to DMSO (control), c-Src (c-Src; remaining activity): 39.16%
- remaining activity at 5 µM (AKT1; read-out: % Enzyme activity relative to DMSO (control), AKT1): 90.6%
- % Enzyme activity relative to DMSO (control), AKT1 (AKT1; remaining activity): 87.91%
- IC50 [3]: < 1000 nM
- remaining activity at 5 µM (ERK1; read-out: % Enzyme activity relative to DMSO (control), ERK1): 119%
- % Enzyme activity relative to DMSO (control), ERK1 (ERK1; remaining activity): 126.49%
- IC50 (BTSC30M; read-out: IC50 BTSC 30M, Table 6, in parallel with other cancer lines): 0.505 µM
- IC50 [4]: < 1000 nM
- remaining activity at 5 µM (JAK2; read-out: % Enzyme activity relative to DMSO (control), JAK2): 46.1%
- % Enzyme activity relative to DMSO (control), JAK2 (JAK2; remaining activity): 47.70%
- IC50 (Prostate (DU145)): 9800 nM
- remaining activity at 5 µM (JAK1; read-out: % Enzyme activity relative to DMSO (control), JAK1): 98.3%
- % Enzyme activity relative to DMSO (control), JAK1 (JAK1; remaining activity): 97.79%
